{
  "source": "PubChem BioAssay AID588620",
  "about": "(NMMLSC, 2011)",
  "note": "Active and inactive are the calls of the source.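 Rule for the calls: active = fitted half-maximal concentration below 30 µM for cell fluorescence in pump-free yeast, so likely self-fluorescent; inactive = the rest.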",
  "data": [
    {"assay": "concentration-dependent intrinsic compound fluorescence, S. cerevisiae AD/pABC3, flow cytometry, Cherry Pick1 hits, artefact control for antifungal efflux pump inhibitor project, dose response (AID 588620);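 note: red emission of unstained cells excited at 488 nm measured in PE-Texas Red channel; cell median fluorescence as percent of DMSO wells so 100% equals vehicle baseline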", "conditions": "S. cerevisiae AD/pABC3 compound autofluorescence, flow cytometry; at 33.1 µM (top of the series)", "values": [
      {"smiles": "COc1cc(CNC(C)(C)CO)cc(Br)c1OCc1ccc(Cl)cc1", "fluorescence response, % of control": "130% (inactive)"},
      {"smiles": "c1cc2c(cc1C1CCCCC1)c1c3n2CCCNC3CCC1", "note": "(stereo not given)", "fluorescence response, % of control": "132% (inactive)"},
      {"smiles": "COc1ccc2sc(-c3ccccc3OC)c(-c3ccc(OCCN4CCOCC4)cc3)c2c1", "fluorescence response, % of control": "81.8% (inactive)"},
      {"smiles": "Cc1ccc(-c2cc(C(=O)Nc3ccc(S(=O)(=O)Nc4onc(C)c4C)cc3)c3ccccc3n2)cc1", "fluorescence response, % of control": "88.3% (inactive)"},
      {"smiles": "Cc1ccc2nc(-c3ccccc3)cc(C(=O)N3CCN(S(=O)(=O)c4c(C)noc4C)CC3)c2c1", "fluorescence response, % of control": "109% (inactive)"},
      {"smiles": "Cc1ccc(C(=O)N2CCC3(CC2)Oc2ccc(Cl)cc2C(=O)C32CC(c3cccnc3)=NO2)s1", "note": "(stereo not given)", "fluorescence response, % of control": "127% (inactive)"},
      {"smiles": "O=C(NCC1CCCO1)c1ccc(Br)c(S(=O)(=O)N2CCOCC2)c1", "note": "(stereo not given)", "fluorescence response, % of control": "96.3% (inactive)"},
      {"smiles": "S=C(Nc1ccc(Cl)cc1Cl)N1CCCCC1", "fluorescence response, % of control": "135% (inactive)"},
      {"smiles": "O=S(=O)(Nc1cc(Sc2ncn[nH]2)c(O)c2ccccc12)c1ccccc1", "fluorescence response, % of control": "140% (inactive)"},
      {"smiles": "Cc1sc2ncnc(SC(C)C(=O)N3c4ccccc4Sc4ccccc43)c2c1C", "note": "(stereo not given)", "fluorescence response, % of control": "126% (inactive)"},
      {"smiles": "COc1ccc(/C=N/N=C2/NC(=O)C(CC(=O)O)S2)cc1OCc1ccc(Cl)cc1", "note": "(stereo not given)", "fluorescence response, % of control": "91.7% (inactive)"},
      {"smiles": "COc1ccc(-n2ncc3c2CC(C)(C)CC3NC(=O)c2cnc(C)cn2)cc1", "note": "(stereo not given)", "fluorescence response, % of control": "99.3% (inactive)"},
      {"smiles": "CCO[C@@H]1OC(C(=O)Nc2ccccc2)=C[C@H](c2ccc(Br)cc2)[C@H]1CCCO", "fluorescence response, % of control": "102% (inactive)"},
      {"smiles": "Cc1ccc(C)c(Cn2nnc3c(=O)[nH]c(C4CCN(S(=O)(=O)c5ccc(S(=O)(=O)N(C)C)cc5)CC4)nc32)c1", "fluorescence response, % of control": "119% (inactive)"},
      {"smiles": "CCCCCc1cc(=O)oc2c(C(CCN3CCCC(C)C3)c3ccc(N(C)C)cc3)c(OC)cc(OC)c12", "note": "(stereo not given)", "fluorescence response, % of control": "94.5% (inactive)"},
      {"smiles": "COCCOC(=O)c1c(C)oc2ccc(NS(=O)(=O)c3ccc(F)cc3)cc12", "fluorescence response, % of control": "90.9% (inactive)"},
      {"smiles": "CC1(C)CC2(CC(c3cccs3)c3cc(Cl)c(O)cc3O2)NC(=S)N1", "note": "(stereo not given)", "fluorescence response, % of control": "113% (inactive)"},
      {"smiles": "O=C(NC(=S)Nc1ccc2[nH]c(=O)[nH]c2c1)c1cncc(Br)c1", "fluorescence response, % of control": "102% (inactive)"},
      {"smiles": "COc1ccc(CCC(=O)NNC(=O)Cn2nc(C)cc2C)cc1", "fluorescence response, % of control": "100% (inactive)"},
      {"smiles": "CCCCOc1ccc(NC2=NC3(CCCC3)N=C(N)N2)cc1", "fluorescence response, % of control": "73.8% (inactive)"},
      {"smiles": "COc1ccc(-c2ccc3c(c2)S(=O)(=O)c2cccc(C(=O)NC4CCCCC4)c2C3=O)cc1OC", "fluorescence response, % of control": "106% (inactive)"},
      {"smiles": "COc1ccc(N2C(=O)CC(N3CCN(c4ccc(C(=O)c5cccnc5)cc4)CC3)C2=O)cc1", "note": "(stereo not given)", "fluorescence response, % of control": "88.6% (inactive)"},
      {"smiles": "Cc1cc(C(=O)NC2CC(C)(C)Cc3c2cnn3-c2ccc(F)cc2)no1", "note": "(stereo not given)", "fluorescence response, % of control": "98.7% (inactive)"},
      {"smiles": "NC1=NC[C@H](Cc2ccc(O)cc2)N1CCc1cc(C(F)(F)F)cc(C(F)(F)F)c1", "fluorescence response, % of control": "83.1% (inactive)"},
      {"smiles": "CCSc1cc(N2CCCC2)nc(-c2ccc(C)cc2)n1", "fluorescence response, % of control": "101% (inactive)"},
      {"smiles": "C[C@@]12C(=O)Nc3ccc(F)cc3C(=O)N1[C@H]1c3cc(Cl)ccc3OC[C@@H]1[C@@H]2c1ccccc1", "fluorescence response, % of control": "104% (inactive)"},
      {"smiles": "COc1ccc(CC(=O)Nc2ccc(NC(=O)c3ccc(Br)cc3)cc2)cc1OC", "fluorescence response, % of control": "134% (inactive)"},
      {"smiles": "Cc1cnc(C(=O)NC2CC(C)(C)Cc3c2cnn3-c2ccccc2)cn1", "note": "(stereo not given)", "fluorescence response, % of control": "98.5% (inactive)"},
      {"smiles": "O=c1[nH]c(C2CCN(S(=O)(=O)c3ccc4c(c3)OCCO4)CC2)nc2c1nnn2Cc1cccc(F)c1", "fluorescence response, % of control": "172% (inactive)"},
      {"smiles": "Cc1ccc(Cn2nnc3c(=O)[nH]c(C4CCN(S(=O)(=O)c5ccc(F)cc5)CC4)nc32)cc1", "fluorescence response, % of control": "116% (inactive)"},
      {"smiles": "COc1cc(/C=C2/CC/C(=C/c3ccc(O)c(OC)c3)C2=O)ccc1O", "fluorescence response, % of control": "347% (inactive)"},
      {"smiles": "Cc1nn(CC(=O)NCc2cccs2)c(=O)c2nn(-c3ccccc3)c(C)c12", "fluorescence response, % of control": "99% (inactive)"},
      {"smiles": "c1ccc(-c2ccc3c(c2)c2c4n3CCN=C4CCC2)cc1", "fluorescence response, % of control": "138% (inactive)"},
      {"smiles": "O=C1C(Cc2ccccc2)Nc2ncnc(N3CCN(c4ccccc4)CC3)c2N1Cc1ccc(Cl)cc1", "note": "(stereo not given)", "fluorescence response, % of control": "97.1% (inactive)"},
      {"smiles": "COc1cc(OC)cc(-c2sc3ccc(OC)cc3c2-c2ccc(OCCN3CCOCC3)cc2)c1", "fluorescence response, % of control": "111% (inactive)"},
      {"smiles": "CC(C)c1ccc(S(=O)(=O)Nc2ccc(O)c(Sc3ncn[nH]3)c2)cc1", "fluorescence response, % of control": "151% (inactive)"},
      {"smiles": "CC(C)C(O)(C#CCN1CCCCC1)C(C)C", "fluorescence response, % of control": "111% (inactive)"},
      {"smiles": "CCN1CCN(c2cc(SC(C)C)nc(-c3ccc(OC)cc3)n2)CC1", "fluorescence response, % of control": "109% (inactive)"},
      {"smiles": "CCOC(=O)CC(=O)c1cc(OC)c(OC)c(OC)c1", "fluorescence response, % of control": "96.1% (inactive)"},
      {"smiles": "C[C@H]1CN([C@@H](C)CO)C(=O)c2cc(NC(=O)Nc3cccc4ccccc34)ccc2O[C@@H]1CN(C)Cc1ccc(-c2ccccc2)cc1", "fluorescence response, % of control": "102% (inactive)"}
    ]}
  ]
}
